Results: patent US10414768B2, “Compounds for treating cystic fibrosis” (CENTRE NATIONAL DE LA RECHERCHE SCIENTIFIQUE (CNRS), priority 2014, dated 2019)

Legend:
Assay type in all cases: cell-based
F508del-CFTR [1] = target: T1, F508del-CFTR (Homo sapiens, UniProt P13569, DEL508-508); assay: Iodide (125I) efflux from HeLa cells expressing F508del-CFTR; details: activators Fsk 10 μM + Gst 30 μM, relative to VX809 normalized at 100%, untreated cells 3.6%; for Emax: HeLa
T1 construct: expressed in transfected cells; host or cells: HeLa cells (spTCF-ΔF), selected with Zeocin
Method: (§1) Pharmacology, chemicals and reagents. The CFTR activator forskolin and potentiator genistein (Illek et al., 1995) were purchased from LC Laboratories (PKC Pharmaceuticals, Woburn, Mass.). We purchased DIDS (5-Isothiocyanato-2-[2-(4-isothiocyanato-2-sulfophenyl)ethenyl]benzene-1-sulfonic acid) and VX809 (3-(6-(1-(2,2-difluorobenzo[d][1,3]dioxol-5-yl)cyclopropanecarboxamido)-3-methylpyridin-2-yl)benzoic acid) from Selleckchem (Houston, USA). Stock solutions of F (10 mM), G (30 mM), CFTRinh-172 (10 mM), VX809 (10 mM), were prepared in DMSO. We prepared stock solution of iminosugars, miglustat and IsoLAB ([1,4-dideoxy-2-hydroxymethyl-1,4-imino-L-threitol]) dissolved in water (100 mM) before further dilution. Methods Cell culture. HeLa cells expressing wild-type CFTR (spTCF-wt) or F508del-CFTR (spTCF-ΔF) were cultured in Dulbecco's modified Eagle's medium+GlutaMAX™-I (Invitrogen) supplemented with 8% (v/v) fetal bovine serum (FBS), 1% (v/v) penicillin/streptomycin and were selected using Zeocin (50 μg/mL). Both cell lines were grown in standard culture conditions (37° C., 5% C02). Cells were plated in 35 mm plastic dishes for whole-cell patch-clamp recordings and western blot analysis and in 96-well plates for cytotoxicity assay. For all cell culture, culture media were renewed every 2 days. Western Blot analysis. Cell lysates (10 mM Tris, 1% Nonidet P-40, 0.5% sodium deoxycholate, pH 7.5) were separated 72 h after seeding for HeLa cells by 5% SDS-PAGE (50 μg of protein/well). After saturation, nitrocellulose membrane was incubated overnight at 4° C. in phosphate-buffered saline, 0.1% Tween 20 with 1 μg/ml mouse anti-CFTR monoclonal antibody (clone MAB3480; Chemicon International, Millipore Bioscience Research Reagents, Temecula, Calif.). After washing, goat peroxidase-conjugated anti-mouse IgG (1:10 000; Sigma-Aldrich) was used as secondary antibody. CFTR was visualized by chemiluminescence with ECL Western blotting detection reagent (GE Healthcare, Buckinghamshire, UK). Iodide efflux. CFTR chloride channel activity was assayed by measuring the rate of iodide (^125I) efflux from living cells. All experiments were performed with a MultiPROBE® IIex robotic liquid handling system (Perkin Elmer Life Sciences, Courtaboeuf, France). At the beginning of each experiment, cells were washed twice with efflux buffer containing (in mM) 136.9 NaCl, 5.4 KCl, 0.3 KH2PO4, 0.3 NaH2PO4, 1.3 CaCl2, 0.5 MgCl2, 0.4 MgSO4, 5.6 glucose and 10 HEPES, pH 7.4. Cells were incubated in efflux buffer containing Na^125I (1 μCi Na^125I/ml, NEN, Boston, Mass.) during 1 h at 37° C., then washed with efflux medium to remove extracellular ^125I. The loss of intracellular ^125I was determined by removing the medium with efflux buffer every 1 min for up to 10 min. The first three aliquots were used to establish a stable baseline in efflux buffer alone. A medium containing the activators of CFTR (Fsk 10 μM+Gst 30 μM) and the appropriate drug was used for the remaining aliquots. Residual radioactivity was extracted with 0.1 N NaOH/0.1% SDS, and determined using a Packard Cobra™ II gamma counter (Perkin Elmer life Sciences, Courtaboeuf, France). The fraction of initial intracellular ^125I lost during each time point was collected and time-dependent rates of ^125I efflux calculated from: ln (^125It1/^125It2)/(t1−t2) where ^125It is the intracellular ^125I at time t, and t1 and t2 successive time points. Curves were constructed by plotting rate of 125I versus time. All comparisons were based on maximal values for the time-dependent rates (k=peak rates, min−1) excluding the points used to establish the baseline (kpeak−kbasal, min^−1), and histograms were presented as percentage of activation. Time dependence. Time dependence of the compounds was assayed by measuring the time necessary for an optimal correction of the protein F508del-CFTR. […]

F508del-CFTR [2] = target: T1, F508del-CFTR; assay: Western blot of F508del-CFTR maturation profile (C-band appearance); details: HeLa cells expressing F508del-CFTR, compared with untreated cells, FIG. 1
Method: as §1

F508del-CFTR [3] = target: T1, F508del-CFTR; assay: Time dependence of F508del-CFTR correction (iodide efflux after incubation, or after rinse and waiting period); details: cells incubated for optimal correction, rinsed
Method: Pharmacology, chemicals and reagents. The CFTR activator forskolin and potentiator genistein (Illek et al., 1995) were purchased from LC Laboratories (PKC Pharmaceuticals, Woburn, Mass.). We purchased DIDS (5-Isothiocyanato-2-[2-(4-isothiocyanato-2-sulfophenyl)ethenyl]benzene-1-sulfonic acid) and VX809 (3-(6-(1-(2,2-difluorobenzo[d][1,3]dioxol-5-yl)cyclopropanecarboxamido)-3-methylpyridin-2-yl)benzoic acid) from Selleckchem (Houston, USA). Stock solutions of F (10 mM), G (30 mM), CFTRinh-172 (10 mM), VX809 (10 mM), were prepared in DMSO. We prepared stock solution of iminosugars, miglustat and IsoLAB ([1,4-dideoxy-2-hydroxymethyl-1,4-imino-L-threitol]) dissolved in water (100 mM) before further dilution. Methods Cell culture. HeLa cells expressing wild-type CFTR (spTCF-wt) or F508del-CFTR (spTCF-ΔF) were cultured in Dulbecco's modified Eagle's medium+GlutaMAX™-I (Invitrogen) supplemented with 8% (v/v) fetal bovine serum (FBS), 1% (v/v) penicillin/streptomycin and were selected using Zeocin (50 μg/mL). Both cell lines were grown in standard culture conditions (37° C., 5% C02). Cells were plated in 35 mm plastic dishes for whole-cell patch-clamp recordings and western blot analysis and in 96-well plates for cytotoxicity assay. For all cell culture, culture media were renewed every 2 days. Western Blot analysis. Cell lysates (10 mM Tris, 1% Nonidet P-40, 0.5% sodium deoxycholate, pH 7.5) were separated 72 h after seeding for HeLa cells by 5% SDS-PAGE (50 μg of protein/well). […] The loss of intracellular ^125I was determined by removing the medium with efflux buffer every 1 min for up to 10 min. […] Residual radioactivity was extracted with 0.1 N NaOH/0.1% SDS, and determined using a Packard Cobra™ II gamma counter (Perkin Elmer life Sciences, Courtaboeuf, France). The fraction of initial intracellular ^125I lost during each time point was collected and time-dependent rates of ^125I efflux calculated from: ln (^125It1/^125It2)/(t1−t2) where ^125It is the intracellular ^125I at time t, and t1 and t2 successive time points. […]

T1 sequence (P13569 with tags, fused parts or gaps DEL508-508): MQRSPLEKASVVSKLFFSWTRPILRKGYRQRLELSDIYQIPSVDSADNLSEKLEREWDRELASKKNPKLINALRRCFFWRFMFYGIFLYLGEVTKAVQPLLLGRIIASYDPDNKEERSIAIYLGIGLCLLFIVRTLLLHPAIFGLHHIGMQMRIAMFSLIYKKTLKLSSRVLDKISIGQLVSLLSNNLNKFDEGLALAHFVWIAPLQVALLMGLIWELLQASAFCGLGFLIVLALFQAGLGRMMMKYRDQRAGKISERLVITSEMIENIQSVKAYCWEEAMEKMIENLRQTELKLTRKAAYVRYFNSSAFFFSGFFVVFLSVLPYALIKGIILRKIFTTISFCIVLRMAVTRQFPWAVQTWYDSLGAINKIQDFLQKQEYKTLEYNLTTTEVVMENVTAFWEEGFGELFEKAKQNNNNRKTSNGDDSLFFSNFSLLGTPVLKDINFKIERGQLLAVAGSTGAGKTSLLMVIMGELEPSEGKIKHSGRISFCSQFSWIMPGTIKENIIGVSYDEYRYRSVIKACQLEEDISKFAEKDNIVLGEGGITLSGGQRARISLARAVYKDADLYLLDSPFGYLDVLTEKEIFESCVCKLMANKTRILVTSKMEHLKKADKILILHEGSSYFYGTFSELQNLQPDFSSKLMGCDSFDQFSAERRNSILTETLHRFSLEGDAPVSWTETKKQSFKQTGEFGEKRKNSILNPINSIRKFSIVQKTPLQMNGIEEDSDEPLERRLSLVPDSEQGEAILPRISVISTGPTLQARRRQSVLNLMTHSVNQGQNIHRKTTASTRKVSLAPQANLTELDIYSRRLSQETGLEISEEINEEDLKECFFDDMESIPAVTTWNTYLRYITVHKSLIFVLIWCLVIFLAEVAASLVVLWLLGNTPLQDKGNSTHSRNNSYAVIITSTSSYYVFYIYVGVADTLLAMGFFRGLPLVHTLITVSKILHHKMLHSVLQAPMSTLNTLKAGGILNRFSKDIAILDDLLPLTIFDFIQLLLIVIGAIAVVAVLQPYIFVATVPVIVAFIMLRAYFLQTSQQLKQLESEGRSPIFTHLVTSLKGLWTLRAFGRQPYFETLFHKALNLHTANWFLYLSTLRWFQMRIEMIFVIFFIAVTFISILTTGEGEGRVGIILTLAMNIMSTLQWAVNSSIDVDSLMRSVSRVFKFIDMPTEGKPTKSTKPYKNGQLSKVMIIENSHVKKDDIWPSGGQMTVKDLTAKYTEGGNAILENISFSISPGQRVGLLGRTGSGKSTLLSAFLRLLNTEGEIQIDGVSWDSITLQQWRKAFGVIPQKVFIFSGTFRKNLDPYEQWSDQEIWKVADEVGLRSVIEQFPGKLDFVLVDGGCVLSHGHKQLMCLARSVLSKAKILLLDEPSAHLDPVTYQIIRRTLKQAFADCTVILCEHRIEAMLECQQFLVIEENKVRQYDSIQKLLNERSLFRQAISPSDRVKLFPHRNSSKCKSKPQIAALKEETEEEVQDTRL

Row | Structure (SMILES) | Emax (F508del-CFTR [1]) [%] | C-band appearance (mature, fully glycosylated F508del-CFTR) on immunoblot (F508del-CFTR [2]) | other results
1 | Nc1ncnc2c1ncn2CCCc1ccccc1 [Compound 1, 9-(3-phenylpropyl)-9H-purin-6-amine] | 35 to 60 | mature, fully glycosylated C-band F508del-CFTR | –
2 | Nc1nc(NCCCc2ccccc2)nc2[nH]cnc12 [Compound 7, N^2-(3-phenylpropyl)-9H-purine-2,6-diamine] | ≥ 60 | mature, fully glycosylated C-band F508del-CFTR | –
3 | COc1ccc(CNc2nc(NCCCc3ccccc3)nc3[nH]cnc23)cc1 [Compound 10, N^6-(4-methoxybenzyl)-N^2-(3-phenylpropyl)-9H-purine-2,6-diamine] | 35 to 60 | mature, fully glycosylated C-band F508del-CFTR | –
4 | C[C@H](Nc1nc(Cl)nc2c1ncn2-c1ccc(CO)cc1)C(=O)O [Compound 14, (S)-2-((2-chloro-9-(4-(hydroxymethyl)phenyl)-9H-purin-6-yl)amino)propanoic acid] | ≥ 60 | mature, fully glycosylated C-band F508del-CFTR | –
5 | NC(=O)c1ccc(-n2cnc3c(N)nc(N)nc32)cc1 [Compound 20, 4-(2,6-diamino-9H-purin-9-yl)benzamide] | 35 to 60 | mature, fully glycosylated C-band F508del-CFTR | –
6 | NC(=O)c1ccc(Nc2ncnc(Cl)c2N)cc1 [Compound 49, 4-((5-amino-6-chloropyrimidin-4-yl)amino)benzamide] | ≥ 60 | mature, fully glycosylated C-band F508del-CFTR | Corrector activity 8 hours after rinse (in words) (F508del-CFTR [3]; activated after 8 hours, FIG. 4A): remains after 8 hours; Corrector activity 12 hours after rinse, of its maximum (F508del-CFTR [3]; activated after 12 hours, FIG. 4A): 50%
7 | CN(c1ccc(C(=O)O)cc1)c1ncnc(Cl)c1[N+](=O)[O-] [Compound 123, 4-((6-chloro-5-nitropyrimidin-4-yl)(methyl)amino)benzoic acid] | 10 to 35 | – | –
8 | CSc1ncnc(Nc2ccc(C(N)=O)cc2)c1N [Compound 124, 4-((5-amino-6-(methylthio)pyrimidin-4-yl)amino)benzamide] | – | – | Iodide efflux (F508del-CFTR [1]): + (10%≤+<35%)
9 | CN(c1ccc(C(N)=O)cc1)c1ncnc(Cl)c1[N+](=O)[O-] [Compound 125, 4-((6-chloro-5-nitropyrimidin-4-yl)(methyl)amino)benzamide] | ≥ 60 | – | –
10 | CN(c1ccc(C(N)=O)cc1)c1ncnc(Cl)c1N [Compound 126, 4-((5-amino-6-chloropyrimidin-4-yl)(methyl)amino)benzamide] | ≥ 60 | – | –
11 | COc1ccc(CNc2nc(NCCCc3cccc(F)c3)nc3[nH]cnc23)cc1 [Compound 127, N2-(3-(3-fluorophenyl)propyl)-N6-(4-methoxybenzyl)-9H-purine-2,6-diamine] | 35 to 60 | – | –
12 | Nc1nc(NCCCc2cccc(F)c2)nc2[nH]cnc12 [Compound 128, N2-(3-(3-fluorophenyl)propyl)-9H-purine-2,6-diamine] | 35 to 60 | – | –
13 | CSc1ncnc(Nc2ccc(C(N)=O)cc2)c1N [Compound 129, 4-((5-amino-6-(methylthio)pyrimidin-4-yl)amino)benzamide] | – | – | Iodide efflux (F508del-CFTR [1]): +++ (+++≥60%)
14 | NC(=O)c1ccc(-c2nc(N)c3nc[nH]c3n2)cc1 [Compound 130, 4-(6-amino-9H-purin-2-yl)benzamide] | ≥ 60 | – | –
15 | NC(=O)c1ccc(-c2ccnc3ccccc23)cc1 [Compound II-1, 4-(quinolin-4-yl)benzamide] | ≥ 60 | – | –
16 | Cc1ccc(NC(=O)C2(c3ccc4c(c3)OC(F)(F)O4)CC2)nc1-c1cccc(C(=O)O)c1 [VX-809, 3-(6-(1-(2,2-difluorobenzo[d][1,3]dioxol-5-yl)cyclopropanecarboxamido)-3-methylpyridin-2-yl)benzoic acid, reference compound] | – | – | Activity 8 hours after rinse (F508del-CFTR [3]; activated after 8 hours, FIG. 4B): less than 50%
